Values joined by “and” are separate entries in the source; they are usually repeats but may differ in a detail not shown here. Identical values can stand only once. Toxic doses and inconclusive results are not listed.

This assay has as its system L1210 leukemia ip in BDF1 mice, survival T/C. Briefly: NCI In Vivo Anticancer Drug Screen. Data for tumor model L1210 Leukemia (intraperitoneal) in B6D2F1 (BDF1) mice. The settings on record: endpoint: mean survival time, higher = longer survival. Put shortly: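 Tumor cells were implanted, animals were treated, and survival was followed. The result divides the treated measurement by the vehicle-control measurement.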

[1] abbreviates: dose: 50.0 mg/kg/injection, schedule: Q01DX001 (ip), vehicle: saline.
Setting [2] is: dose: 100.0 mg/kg/injection, schedule: Q01DX001 (ip), vehicle: saline.
Setting [3] is: dose: 150.0 mg/kg/injection, schedule: Q01DX001 (ip), vehicle: saline.
Where [4] appears, read: dose: 200.0 mg/kg/injection, schedule: Q01DX001 (ip), vehicle: saline.
Setting [5] is: dose: 400.0 mg/kg/injection, schedule: Q01DX001 (ip), vehicle: saline.
[6] abbreviates: dose: 75.0 mg/kg/injection, schedule: Q01DX001 (ip), vehicle: saline.
Where [7] appears, read: dose: 100.0 mg/kg/injection, schedule: Q01DX001 (ip), vehicle: carboxymethylcellulose (CMC).
Setting [8] is: dose: 200.0 mg/kg/injection, schedule: Q01DX001 (ip), vehicle: carboxymethylcellulose (CMC).
Setting [9] is: dose: 100.0 mg/kg/injection, schedule: Q04DX002 (ip), vehicle: saline with Tween-80.
The mark [10] stands for this setting: dose: 200.0 mg/kg/injection, schedule: Q04DX002 (ip), vehicle: saline with Tween-80.
The mark [11] stands for this setting: dose: 400.0 mg/kg/injection, schedule: Q04DX002 (ip), vehicle: saline with Tween-80.
[12] abbreviates: dose: 100.0 mg/kg/injection, schedule: Q04DX003 (ip), vehicle: saline with Tween-80.
Setting [13] is: dose: 200.0 mg/kg/injection, schedule: Q04DX003 (ip), vehicle: saline with Tween-80.
[14] abbreviates: dose: 400.0 mg/kg/injection, schedule: Q04DX003 (ip), vehicle: saline with Tween-80.

Regarding `CCN(CC)Cc1ccc(N)cc1`, the T/C is 100 % of control (dose: 12.5 mg/kg/injection, schedule: Q01DX009 (ip), vehicle: saline) and 110 % of control (dose: 25.0 mg/kg/injection, schedule: Q01DX009 (ip), vehicle: saline).

As for `CC(OCCC#N)C(C)OCCC#N` (configuration not stated), the T/C by setting is: (dose: 44.0 mg/kg/injection, schedule: Q01DX001 (ip), vehicle: saline) 93 % of control; (dose: 45.0 mg/kg/injection, schedule: Q01DX001 (ip), vehicle: saline) 102 % of control; under setting [1], 98 % of control; (dose: 67.0 mg/kg/injection, schedule: Q01DX001 (ip), vehicle: saline) 96 % of control and 104 % of control; under setting [2], 98 % of control and 101 % of control (2×); under setting [3], 101 % of control and 102 % of control. In addition, the T/C is, setting by setting: under setting [4], 98 % of control; under setting [5], 98 % of control.

Regarding `C[N+]1(C)C2CCC(OCc3ccccc3)C1COC2` (configuration not stated), the T/C by setting is: under setting [6], 98 % of control; under setting [3], 105 % of control.

Turning to `c1ccc(C(=NN(CCN(N=C(c2ccccc2)c2ccccc2)c2ccccc2)c2ccccc2)c2ccccc2)cc1`, the T/C under setting [1] was 101 % of control, the T/C under setting [2] was 92 % of control, the T/C under setting [4] is 86 % of control and the T/C under setting [5] was 92 % of control.

As to `Cc1noc(NC(=O)Nc2ccccc2C(F)(F)F)c1C`, the T/C is, setting by setting: (dose: 100.0 mg/kg/injection, schedule: Q01DX009 (ip), vehicle: Klucel (hydroxypropylcellulose) (HPC)) 95 % of control and 103 % of control; (dose: 100.0 mg/kg/injection, schedule: Q04DX002 (ip), vehicle: Klucel (hydroxypropylcellulose) (HPC)) 92 % of control and 97 % of control; (dose: 200.0 mg/kg/injection, schedule: Q01DX009 (ip), vehicle: Klucel (hydroxypropylcellulose) (HPC)) 92 % of control and 118 % of control; (dose: 200.0 mg/kg/injection, schedule: Q04DX002 (ip), vehicle: Klucel (hydroxypropylcellulose) (HPC)) 101 % of control and 119 % of control; (dose: 400.0 mg/kg/injection, schedule: Q01DX009 (ip), vehicle: Klucel (hydroxypropylcellulose) (HPC)) 101 % of control; (dose: 400.0 mg/kg/injection, schedule: Q04DX002 (ip), vehicle: Klucel (hydroxypropylcellulose) (HPC)) 105 % of control and 116 % of control.

Take `O=C(CN(Cc1ccccc1)Cc1ccccc1)c1ccccc1`: for the setting “dose: 100.0 mg/kg/injection, schedule: Q04DX003 (ip), vehicle: DMSO”, the T/C is 103 % of control.

Regarding `CC1(C)OCC(C(O)C(O)C2COC(C)(C)O2)O1` (configuration not stated), the T/C is 96 % of control (dose: 100.0 mg/kg/injection, schedule: Q04DX002 (ip), vehicle: saline); 104 % of control (dose: 200.0 mg/kg/injection, schedule: Q04DX002 (ip), vehicle: saline); 101 % of control (dose: 400.0 mg/kg/injection, schedule: Q04DX002 (ip), vehicle: saline).

For `O=C(c1ccc(Cl)cc1)c1ccc(Cl)cc1`, the T/C was 105 % of control (dose: 100.0 mg/kg/injection, schedule: Q04DX003 (ip), vehicle: Klucel (hydroxypropylcellulose) (HPC)); 100 % of control (dose: 200.0 mg/kg/injection, schedule: Q04DX003 (ip), vehicle: Klucel (hydroxypropylcellulose) (HPC)); 96 % of control (dose: 400.0 mg/kg/injection, schedule: Q04DX003 (ip), vehicle: Klucel (hydroxypropylcellulose) (HPC)).

Take `CS(=O)(=O)c1nc(Cl)nc(C(Cl)(Cl)Cl)c1Cl`: the T/C (dose: 25.0 mg/kg/injection, schedule: Q01DX009 (ip), vehicle: saline with Tween-80) is 101 % of control and the T/C (dose: 50.0 mg/kg/injection, schedule: Q01DX009 (ip), vehicle: saline with Tween-80) was 95 % of control.

As for `N#CCCSCCc1ccccc1`, the T/C by setting is: (dose: 75.0 mg/kg/injection, schedule: Q01DX009 (ip), vehicle: saline with Tween-80) 91 % of control; (dose: 150.0 mg/kg/injection, schedule: Q01DX009 (ip), vehicle: saline with Tween-80) 96 % of control.

For `CC(=O)OCC1OC(O)C(NC(=O)C(F)(F)F)C(OC(C)=O)C1OC(C)=O` (configuration not stated), the T/C is 109 % of control (dose: 12.5 mg/kg/injection, schedule: Q04DX003 (ip), vehicle: saline) and 96 % of control (dose: 25.0 mg/kg/injection, schedule: Q04DX003 (ip), vehicle: saline).

Turning to `Cc1cc(C)c(O)c(CN(C)Cc2c(C)[nH]c(=O)[nH]c2=O)c1`, the T/C by setting is: under setting [7], 98 % of control; under setting [8], 91 % of control; (dose: 400.0 mg/kg/injection, schedule: Q01DX001 (ip), vehicle: carboxymethylcellulose (CMC)) 91 % of control.

`NC(=S)c1cn(C2OC(CO)C(O)C2O)c2ncnc(N)c12` (configuration not stated): the T/C (dose: 0.5 mg/kg/injection, schedule: Q03HX016 (ip), vehicle: other) was 118 % of control; the T/C (dose: 0.5 mg/kg/injection, schedule: Q03HX024 (ip), vehicle: saline) was 156 % of control; the T/C (dose: 1.0 mg/kg/injection, schedule: Q03HX016 (ip), vehicle: other) is 118 % of control; the T/C (dose: 1.0 mg/kg/injection, schedule: Q03HX024 (ip), vehicle: saline) is 172 % of control; the T/C (dose: 2.0 mg/kg/injection, schedule: Q03HX016 (ip), vehicle: other) was 176 % of control; the T/C (dose: 2.0 mg/kg/injection, schedule: Q03HX024 (ip), vehicle: saline) was 124 % of control. Also, the T/C was 110 % of control (dose: 3.75 mg/kg/injection, schedule: Q01DX009 (ip), vehicle: carboxymethylcellulose (CMC)); 123 % of control (dose: 4.0 mg/kg/injection, schedule: Q08DX002 (ip), vehicle: other); 112 % of control (dose: 5.0 mg/kg/injection, schedule: Q01DX001 (ip), vehicle: saline); 117 % of control (dose: 7.5 mg/kg/injection, schedule: Q01DX001 (ip), vehicle: carboxymethylcellulose (CMC)); 151 % of control (dose: 8.0 mg/kg/injection, schedule: Q04DX003 (ip), vehicle: saline); 123 % of control (dose: 8.0 mg/kg/injection, schedule: Q08DX002 (ip), vehicle: other). Moreover, the T/C is, setting by setting: (dose: 10.0 mg/kg/injection, schedule: Q01DX001 (ip), vehicle: saline) 118 % of control; (dose: 15.0 mg/kg/injection, schedule: Q01DX001 (ip), vehicle: carboxymethylcellulose (CMC)) 122 % of control; (dose: 16.0 mg/kg/injection, schedule: Q04DX003 (ip), vehicle: saline) 96 % of control.

As to `O=[N+]([O-])c1cc([N+](=O)[O-])c2sc3ccccc3c2c1`, the T/C is, setting by setting: (dose: 50.0 mg/kg/injection, schedule: Q04DX002 (ip), vehicle: saline with Tween-80) 97 % of control; under setting [9], 104 % of control and 90 % of control; under setting [10], 87 % of control; under setting [11], 108 % of control.

For the compound `O=C(O)c1c(Cl)c(Cl)c(Cl)c(Cl)c1C(=O)c1ccccc1`, the T/C is, setting by setting: under setting [6], 109 % of control; under setting [3], 113 % of control; (dose: 300.0 mg/kg/injection, schedule: Q01DX001 (ip), vehicle: saline) 101 % of control.

`ClC(Cl)c1ccccc1`: the T/C was 98 % of control under setting [12], 95 % of control under setting [13] and 87 % of control under setting [14].

For `Cc1cccc(C(=O)O)c1CC1NCCC2c3ccccc3NC12` (configuration not stated), the T/C was 98 % of control under setting [6] and 100 % of control under setting [3].

`CCC(C)COC(=O)Nc1cccc(OC(=O)NC)c1` (configuration not stated): the T/C by setting is: under setting [12], 97 % of control; under setting [13], 102 % of control; under setting [14], 102 % of control.

In the case of `CC(C)C1=CC23CCC4C(C)(C(=O)O)CCCC4(C)C2CC1OO3` (configuration not stated), the T/C was 100 % of control (dose: 100.0 mg/kg/injection, schedule: Q01DX009 (ip), vehicle: saline with Tween-80); 97 % of control (dose: 200.0 mg/kg/injection, schedule: Q01DX009 (ip), vehicle: saline with Tween-80); 97 % of control (dose: 400.0 mg/kg/injection, schedule: Q01DX009 (ip), vehicle: saline with Tween-80).

Turning to `Cc1cccc(C2=CCCCC2)c1`, the T/C (dose: 50.0 mg/kg/injection, schedule: Q01DX001 (ip), vehicle: carboxymethylcellulose (CMC)) was 96 % of control; the T/C under setting [7] is 102 % of control; the T/C under setting [8] was 96 % of control.

As for `CCc1nc(N[N+](=O)[O-])nc(CC)c1-c1ccc([N+](=O)[O-])cc1O`, the T/C is, setting by setting: under setting [9], 97 % of control; under setting [10], 87 % of control; under setting [11], 95 % of control.

The values are drawn from PubChem BioAssay AID248 (DTP/NCI, 2004).
